Data taken from patent publication US20100227313A1, “Methods and Compositions for Determining Altered Susceptibility of HIV-1 to Protease Inhibitor Treatment” (priority 2007, published 2010).

Tested on: HIV-1
Experiment: Resistance test vector (PHENOSENSE) phenotypic susceptibility assay, fold change in IC50, correlated with genotype (Fisher's Exact test, odds ratio)
Format: cell-based, human immunodeficiency virus type 1
Conditions: for Odds Ratio: reduced susceptibility (FC>2)
Source text: See Petropoulos et al., 2000, Antimicrob. Agents Chemother. 44:920-928; U.S. Pat. Nos. 5,837,464 and 6,242,187. PHENOSENSE™ is a phenotypic assay that achieves the benefits of phenotypic testing and overcomes the drawbacks of previous assays.
PHENOSENSE™ can obtain results with only one round of viral replication, thereby avoiding selection of subpopulations of virus that can occur during preparation of viral stocks required for assays that rely on fully infectious virus.
A resistance test vector (“RTV”) can then be constructed by incorporating the amplified viral gene sequences into a replication defective viral vector by using any method known in the art of incorporating gene sequences into a vector. In one embodiment, restrictions enzymes and conventional cloning methods are used. See Sambrook et al., 2001, Molecular Cloning: A Laboratory Manual, Cold Spring Harbor Laboratory, 3rd ed., NY; and Ausubel et al., 1989, Current Protocols in Molecular Biology, Greene Publishing Associates and Wiley Interscience, NY. In a preferred embodiment, ApaI and PinAI restriction enzymes are used. Preferably, the replication defective viral vector is the indicator gene viral vector (“IGVV”). In a preferred embodiment, the viral vector contains a means for detecting replication of the RTV. Preferably, the viral vector contains a luciferase expression cassette.
The assay can be performed by first co-transfecting host cells with RTV DNA and a plasmid that expresses the envelope proteins of another retrovirus, for example, amphotropic murine leukemia virus (MLV). Following transfection, viral particles can be harvested from the cell culture and used to infect fresh target cells in the presence of varying amounts of anti-viral drug(s). The completion of a single round of viral replication in the fresh target cells can be detected by the means for detecting replication contained in the vector. In a preferred embodiment, the completion of a single round of viral replication results in the production of luciferase. By monitoring the amount of, e.g., luciferase activity in the presence of the varying amounts of antiviral drug(s), a resistance curve can be constructed by plotting luciferase activity versus drug concentration. The susceptibility of an HIV, or population of HIV, can be determined by measuring the concentration of antiviral drug at which the luciferase activity detected is half-maximal. This number, the IC50, provides a standard and convenient measure of drug resistance.
Patient derived segment(s) corresponding to the HIV protease and reverse transcriptase coding regions were amplified by the reverse transcription polymerase chain reaction method (RT PCR) using viral RNA isolated from viral particles present in the plasma or serum of HIV infected individuals as follows. Viral RNA was isolated from the plasma or serum using oligo-dT magnetic beads (Dynal Biotech, Oslo, Norway), followed by washing and elution of viral RNA. The RT PCR protocol was divided into two steps. A retroviral reverse transcriptase (e.g. Moloney MuLV reverse transcriptase (Roche Molecular Systems, Inc., Branchburg, N.J.; Invitrogen, Carlsbad, Calif.), or avian myeloblastosis virus (AMV) reverse transcriptase, (Boehringer Mannheim, Indianapolis, Ind.) was used to copy viral RNA into cDNA. The cDNA was then amplified using a thermostable DNA polymerase (e.g. Taq (Roche Molecular Systems, Inc., Branchburg, N.J.), Tth (Roche Molecular Systems, Inc., Branchburg, N.J.), PRIMEZYME™ (isolated from Thermus brockianus, Biometra, Gottingen, Germany)) or a combination of thermostable polymerases as described for the performance of “long PCR” (Barnes, W.M., 1994, Proc. Natl. Acad. Sci, USA 91, 2216 20) (e.g. Expand High Fidelity PCR System (Taq+Pwo), (Boehringer Mannheim. Indianapolis, Ind.); GENEAMP XL™ PCR kit (Tth+Vent), (Roche Molecular Systems, Inc., Branchburg, N.J.); or […] II®, Clontech, Palo Alto, Calif.)

`CC(C)CN(C[C@@H](O)[C@H](Cc1ccccc1)NC(=O)O[C@H]1CCOC1)S(=O)(=O)c1ccc(N)cc1` [APV, amprenavir] was tested, and the “correlation of FC in susceptibility with the FC in susceptibility for DRV” value (2862 clinical samples, FC relative to wild-type (NL4-3), FIG. 1) was “tightly correlated”, the “Odds Ratio” value (mutation A22V in PR) was 4.43 and the “Odds Ratio” value (mutation A71I in PR) was 1.93. For the same compound, the “Odds Ratio” value (mutation A71V in PR) was 1.62, the “Odds Ratio” value (mutation A431I in gag) was 21.52 and the “Odds Ratio” value (mutation A431V in gag) was 3.21. The “Odds Ratio” value (mutation C67F in PR) was 9.28, the “Odds Ratio” value (mutation C95F in PR) was 4.96 and the “Odds Ratio” value (mutation D60E in PR) was 1.51. For the same compound, the “Odds Ratio” value (mutation E34Q in PR) was 4.54, the “Odds Ratio” value (mutation E35D in PR) was 1.27 and the “Odds Ratio” value (mutation E35N in PR) was 10.13. For the same compound, the “Odds Ratio” value (mutation E428D in gag) was 1.94, the “Odds Ratio” value (mutation E467K in gag) was 2.39 and the “Odds Ratio” value (mutation E468K in gag) was 2.98. For the same compound, the “Odds Ratio” value (mutation F53L in PR) was 4.91, the “Odds Ratio” value (mutation F53Y in PR) was 10.44 and the “Odds Ratio” value (mutation F463S in gag) was 7.28. The “Odds Ratio” value (mutation F463V in gag) was 2.29, the “Odds Ratio” value (mutation F465L in gag) was 1.65 and the “Odds Ratio” value (mutation F465S in gag) was 2.17. The “Odds Ratio” value (mutation G16A in PR) was 4.49, the “Odds Ratio” value (mutation G73A in PR) was 5.85 and the “Odds Ratio” value (mutation G73C in PR) was 2.98. The “Odds Ratio” value (mutation G73S in PR) was 2.69, the “Odds Ratio” value (mutation G73T in PR) was 21.84 and the “Odds Ratio” value (mutation H69R in PR) was 3.98. The “Odds Ratio” value (mutation H441Q in gag) was 3.05, the “Odds Ratio” value (mutation I13V in PR) was 1.41 and the “Odds Ratio” value (mutation I47V in PR) was 98.74. For the same compound, the “Odds Ratio” value (mutation I54A in PR) was 7.70, the “Odds Ratio” value (mutation I54L in PR) was 8.74 and the “Odds Ratio” value (mutation I54M in PR) was 32.44. The “Odds Ratio” value (mutation I54V in PR) was 2.67, the “Odds Ratio” value (mutation I62V in PR) was 1.28 and the “Odds Ratio” value (mutation I66F in PR) was 4.19. The “Odds Ratio” value (mutation I66V in PR) was 4.16, the “Odds Ratio” value (mutation I72L in PR) was 3.51 and the “Odds Ratio” value (mutation I72V in PR) was 1.51. The “Odds Ratio” value (mutation I84V in PR) was 58.10, the “Odds Ratio” value (mutation I85V in PR) was 3.21 and the “Odds Ratio” value (mutation I437V in gag) was 3.51. The “Odds Ratio” value (mutation I479T in gag) was 1.28, the “Odds Ratio” value (mutation K20R in PR) was 2.41 and the “Odds Ratio” value (mutation K20T in PR) was 1.55. The “Odds Ratio” value (mutation K20V in PR) was 4.43, the “Odds Ratio” value (mutation K43T in PR) was 7.24 and the “Odds Ratio” value (mutation K55R in PR) was 4.17. For the same compound, the “Odds Ratio” value (mutation L10F in PR) was 3.36, the “Odds Ratio” value (mutation L10I in PR) was 1.95 and the “Odds Ratio” value (mutation L10V in PR) was 1.62. The “Odds Ratio” value (mutation L19P in PR) was 6.49, the “Odds Ratio” value (mutation L23I in PR) was 4.81 and the “Odds Ratio” value (mutation L24F in PR) was 11.71. For the same compound, the “Odds Ratio” value (mutation L33F in PR) was 12.07, the “Odds Ratio” value (mutation L63P in PR) was 1.10 and the “Odds Ratio” value (mutation L89I in PR) was 2.71. The “Odds Ratio” value (mutation L89M in PR) was 1.95, the “Odds Ratio” value (mutation L90M in PR) was 1.24 and the “Odds Ratio” value (mutation L449F in gag) was 1.46. For the same compound, the “Odds Ratio” value (mutation L449V in gag) was 9.49, the “Odds Ratio” value (mutation M36I in PR) was 1.48 and the “Odds Ratio” value (mutation M36L in PR) was 1.98. The “Odds Ratio” value (mutation M46I in PR) was 2.32, the “Odds Ratio” value (mutation M46L in PR) was 2.48 and the “Odds Ratio” value (mutation M423I in gag) was 2.07. The “Odds Ratio” value (mutation N37D in PR) was 1.55, the “Odds Ratio” value (mutation P79A in PR) was 18.04 and the “Odds Ratio” value (mutation P79S in PR) was 9.49. The “Odds Ratio” value (mutation P453I in gag) was 4.11, the “Odds Ratio” value (mutation P453V in gag) was 9.49 and the “Odds Ratio” value (mutation P459T in gag) was 2.53. The “Odds Ratio” value (mutation Q58E in PR) was 4.49, the “Odds Ratio” value (mutation Q61N in PR) was 5.22 and the “Odds Ratio” value (mutation Q92K in PR) was 7.78. The “Odds Ratio” value (mutation R452K in gag) was 2.49, the “Odds Ratio” value (mutation R452S in gag) was 2.87 and the “Odds Ratio” value (mutation S451T in gag) was 1.85. The “Odds Ratio” value (mutation S462N in gag) was 2.19, the “Odds Ratio” value (mutation S488A in gag) was 1.79 and the “Odds Ratio” value (mutation T4A in PR) was 9.49. For the same compound, the “Odds Ratio” value (mutation T4P in PR) was 4.01, the “Odds Ratio” value (mutation T4S in PR) was 8.07 and the “Odds Ratio” value (mutation T12P in PR) was 2.37. The “Odds Ratio” value (mutation T74P in PR) was 27.85, the “Odds Ratio” value (mutation T91S in PR) was 11.16 and the “Odds Ratio” value (mutation V11I in PR) was 23.10. The “Odds Ratio” value (mutation V32I in PR) was 62.34, the “Odds Ratio” value (mutation V82A in PR) was 1.98 and the “Odds Ratio” value (mutation V82C in PR) was 9.18. The “Odds Ratio” value (mutation V82F in PR) was 11.71, the “Odds Ratio” value (mutation V82I in PR) was 2.31 and the “Odds Ratio” value (mutation V82L in PR) was 6.33. The “Odds Ratio” value (mutation V82T in PR) was 3.06.
